Experimental data: patent publication EP4467137A1, “TREATMENT OF FRONTOTEMPORAL DEMENTIA OR FRONTOTEMPORAL LOBAR DEMENTIA” (Universidad Autónoma de Madrid, priority 2023, dated 2024)

What was measured:
[1] = test system: primary rat glial cultures; assay: Anti-neuroinflammatory screening in LPS-treated primary glial cultures (Griess, normalized by MTT); assay type: cell-based; conditions: % reduction of nitrites, LPS alone = 100 % inflammation, read-out: Anti-neuro inflammatory effect at 3 µM (%)
Method: Screening for anti-inflammatory properties in primary rat glial cultures was performed according to the protocol described previously [Gameiro, Isabel et al. "Discovery of the first dual GSK3β inhibitor/Nrf2 inducer. A new multitarget therapeutic strategy for Alzheimer's disease." Scientific reports vol. 7 45701. 31 Mar. 2017, doi:10.1038/srep45701]. All compounds were evaluated at the single concentration of 3 µM. Neuroinflammation was quantified as the value of released […], measured by the Griess method, normalized by the number of viable cells measured by the MTT method [Mosmann, T. "Rapid colorimetric assay for cellular growth and survival: application to proliferation and cytotoxicity assays." Journal of immunological methods vol. 65, 1-2 (1983): 55-63. doi:10.1016/0022-1759(83)90303-4]. LPS alone was considered 100 % inflammation.
Based on the results obtained (Table 2), Compound 1 was selected for further in vitro and in vivo studies as it was endowed with the best anti-neuroinflammatory activity. Table 2: Comparative in vitro results. Cell viability/toxicity: effect of the compound per se on cell viability of […] cells measured with the MTT method. Anti-neuroinflammatory effect: % Reduction of nitrites in primary rat glial cultures. PAMPA-BBB: In vitro blood-brain barrier permeation assay, permeation rate Pe (10-6 cm.s-1). NRF2, CD (µM): Concentration of compound that doubles de activation of NRF2. ORAC: Oxygen radical absorbance capacity. LOX-5: lipoxygenase-5.

[2] = target: T1, human lipoxygenase-5 (hLOX-5) (Homo sapiens, UniProt P09917); assay: Inhibition of human lipoxygenase-5; assay type: biochemical; conditions: mean ± SD of three independent experiments in triplicate; read-out: LOX5 IC50
T1 sequence (P09917 1-674): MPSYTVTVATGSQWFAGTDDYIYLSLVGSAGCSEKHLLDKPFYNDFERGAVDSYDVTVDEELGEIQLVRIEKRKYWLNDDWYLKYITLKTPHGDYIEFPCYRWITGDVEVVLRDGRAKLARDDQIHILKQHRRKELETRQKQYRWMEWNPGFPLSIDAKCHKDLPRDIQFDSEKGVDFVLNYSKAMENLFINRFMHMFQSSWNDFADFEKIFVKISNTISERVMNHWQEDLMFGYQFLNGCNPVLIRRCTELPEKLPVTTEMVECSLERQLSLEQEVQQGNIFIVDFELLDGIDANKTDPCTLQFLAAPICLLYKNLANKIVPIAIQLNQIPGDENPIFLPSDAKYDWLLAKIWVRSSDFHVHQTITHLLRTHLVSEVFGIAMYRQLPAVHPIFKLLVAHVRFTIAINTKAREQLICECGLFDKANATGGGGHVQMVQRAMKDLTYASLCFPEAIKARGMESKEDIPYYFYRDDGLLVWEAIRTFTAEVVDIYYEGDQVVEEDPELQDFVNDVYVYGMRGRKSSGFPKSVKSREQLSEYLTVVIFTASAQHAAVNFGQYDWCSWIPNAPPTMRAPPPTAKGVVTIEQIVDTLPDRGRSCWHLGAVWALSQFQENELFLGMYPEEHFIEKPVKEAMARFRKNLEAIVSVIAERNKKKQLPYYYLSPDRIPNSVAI
Method: The inhibition of human lipoxygenase-5 (hLOX-5) was performed as described [Herrera-Arozamena, Clara et al. "Tuning melatonin receptor subtype selectivity in oxadiazolone-based analogues: Discovery of QR2 ligands and NRF2 activators with neurogenic properties." European journal of medicinal chemistry vol. 190 (2020): 112090. doi:10.1016/j.ejmech.2020.112090], Data are the mean ± SD of three independent experiments performed in triplicate.

[3] = test system: hyperphosphorylated tau; assay: In vivo hTauP301L model: hippocampal hyperphosphorylated tau by AT8 and AT180 immunofluorescence; design: species or system mouse; conditions: 35 days
Method: (§1) In vivo hTau301L model was induced by stereotaxic injection of AAV-hTauP301L (AAV-hTau) particles as described in [Luengo, Enrique et al. "Implication of type 4 NADPH oxidase (NOX4) in tauopathy." Redox biology vol. 49 (2022): 102210. doi:10.1016/j.redox.2021.102210 ]. Control animals were injected with AAV-GFP. Evaluation of hyperphosphorylated tau in sarkosyl soluble and insoluble fractions; microgliosis; AT8 and AT180 by immunofluorescence; and cognitive test were performed as described previously [Luengo, Enrique et al. "Implication of type 4 NADPH oxidase (NOX4) in tauopathy." Redox biology vol. 49 (2022): 102210. doi:10.1016/j.redox.2021.102210 ].
(§2) Oral administration of Compound 1 at different dosages (20 mg·kg^-1 and 50 mg·kg^-1) was administered embedded in gelatine. The compound was given in a mixture of 10 % gelatine from porcine skin and 10 % sucralose in water, heated in a microwave oven. Before Compound 1 addition, gelatine mixture was left at RT. Afterwards, the compound was added, evenly mixed and plated 1 mL·well^-1 in a P24 plate. Before AAV injection, mice were trained to eat the gelatines by giving them one gelatine (without compound) per day for 4 consecutive days. After AAV injection, mice were treated once a day with control or Compound 1 gelatines for 35 consecutive days. This approach was followed in adult (3-4 months old) and aged (16-18 months old) mice injected with AAV-GFP or AAV-hTauP301L.
(§3) Example 2.5. Compound 1 ameliorates hTauP301L induced FTD and cognitive decline in adult (3-4 months old) mice. FTD was generated in adult male and female C57BL/6J mice (3-4 months old) by bihippocampal injection of AAV-hTau particles containing the P301L mutation. Mice were treated orally once a day with a single dose of 20 or 50 mg/kg of Compound 1 formulated in gelatines the day after stereotaxic delivery of AAVs (GFP or TauP301L, to controls and FTD, respectively). After 35 days treatment, hyperphosphorylated tau levels were evaluated by immunofluorescence and by WB in soluble and insoluble in sarkosyl fractions. Also, behavioural tests were conducted to study the cognition status of the mice.
Hyperphosphorylated tau levels measured with the antibodies AT8 (p-Ser202/p-Thr205) and AT180 (p-Thr231) were analysed by immunofluorescence in fixed postmortem brain slices of treated mice (Figure 7A).
(§4) Example 2.6. Compound 1 ameliorates hTauP301L induced FTD and cognitive decline in aged (16-18 months old) mouse. To include the aging effect in the FTD model, the previous experiments were replicated in male and female 16-18 months old C57/BL6J mice.

[4] = In vivo hTauP301L model: spatial memory tests (T-maze, Object Location test); design: species or system mouse; conditions: 35 days; for OLT discrimination index / T-maze percentage of success: adult mice
Method: as §1, §2, §3
Spatial memory was measured using the T-maze (Figure 9A) and the Object localization tests (OLT; Figure 9B).
as §4

[5] = adult (3-4 months old) mice, 50 mg/kg/day oral
[6] = aged (16-18 months old) mice, 50 mg/kg oral

## COc1ccc2c(c1)CC(c1c[nH]c3ccc(OC)cc13)N2 (stereo not drawn) [Compound 1, 5-Methoxy-3-(5-methoxyindolin-2-yl)-1H-indole]
[1]
  inhibition at 3 µM: 100 ± 6.6%
[2]
  IC50: 3.08 ± 0.29 µM
[3]; [5]
  AT8 fluorescence in hippocampus (DG, CA1 and CA3): significantly reduced
  AT180 fluorescence in hippocampus (DG, CA1 and CA3): significantly reduced
[3]; [6]
  hyperphosphorylated tau levels by AT8 in DG, CA3 and CA1: reduced
  hyperphosphorylated tau levels by AT180 in DG, CA3 and CA1: reduced
[4]; 20 mg/kg or 50 mg/kg oral
  OLT discrimination index: dose-dependent improvement
  T-maze percentage of success: dose-dependent improvement
[4]; 50 mg/kg oral
  OLT discrimination index: total recovery
  T-maze percentage of success: total recovery
[4]; [6]
  spatial memory loss, OLT: prevented
  spatial memory loss, T-maze: prevented
